Measured values reported in US7560252B2, “Borrelidin-producing polyketide synthase and its use” (priority 2002, dated 2009).
Values after ≈ are worked out from the molar mass of the structure shown.

How the values were obtained:
[1] = tested on: Lewis lung adenocarcinoma; conditions: cited from earlier work
[2] = tested on: WiDr cell lines of human colon cancer; conditions: JP 9-227,549 and JP 8-173,167; cited from earlier work
B16-BL6 melanoma cells = conditions: same dosage (1.8 mg/kg); cited from earlier work
protein synthesis = conditions: cited from earlier work
capillary tube formation = conditions: rat aorta matrix culture model; cited from earlier work
caspase-8 = conditions: cited from earlier work
[3] = tested on: haploid and diploid cells; conditions: at concentrations that do not affect gross protein biosynthesis; cited from earlier work
[4] = tested on: human umbilical vein endothelial cells (HUVEC); conditions: cited from earlier work
[5] = tested on: PC-3 cell lines of human prostate cancer; conditions: JP 9-227,549 and JP 8-173,167; cited from earlier work
S. albus J1074/pEM4A = assay: soaked disk bioassay, control strain; format: cell-based, Streptomyces albus J1074; conditions: disks with borrelidin at 100 & 200 μg/ml, Bennett's agar, overnight at 30° C.
From the text: The self-resistance of S. parvulus strains to borrelidin is most probably due to the product of borO, which encodes a threonyl tRNA synthetase homologue. Threonyl-tRNA synthetase is the molecular target of borrelidin in sensitive strains (Paetz & Ness, 1973). It is predicted that BorO is resistant to the action of borrelidin, and acts to produce threonyl-tRNAs in cells that make borrelidin, effectively complementing the normal threonyl-tRNA which are inhibited. To verify this hypothesis borO was amplified by PCR and cloned in to the expression vector pEM4A, which puts borO under the control of the strong constitutive promoter ermE* (example 26). The resulting vector pborOR was then transformed into the borrelidin-sensitive strain Streptomyces albus J1074 (Chater & Wilde, 1980).
Resistance to borrelidin was assayed on Bennett's agar containing apramycin at 25 μg/ml. Spores of S. albus J1074/pborOR and the control S. albus J1074/pEM4A were spread onto plates and then disks containing borrelidin at 100 & 200 μg/ml were laid upon the lawn of spores and incubated overnight at 30° C.

WiDr cells = conditions: 1.8 mg/kg by intraperitoneal injection; higher degree than TNP-470; cited from earlier work
caspase-3 = conditions: cited from earlier work
[6] = tested on: endothelial cell proliferation and endothelial capillary formation; conditions: with respect to borrelidin; cited from earlier work
[7] = tested on: mouse colon adenocarcinoma cells; conditions: subtoxic dose; cited from earlier work

C[C@@H]1C[C@H](C)C[C@H](C)[C@@H](O)CC(=O)O[C@H]([C@@H]2CCC[C@H]2C(=O)O)C/C=C/C=C(/C#N)[C@H](O)[C@@H](C)C1 [Borrelidin]
propagation of metastatic nodules ([1]; after removal of the primary tumour): weakly inhibited
effectiveness against WiDr cell lines [2]: effective
inhibition of the formation of spontaneous lung metastases (B16-BL6 melanoma cells): effective
IC50 for anti-angiogenesis activity lower than for inhibition of protein synthesis (protein synthesis; 0.4 ng/ml versus 20 ng/ml): 50 fold
IC50 inhibition of protein synthesis (protein synthesis; cultured rat cells): 20 ng/mL
IC50 (capillary tube formation): 800 pM
IC50 capillary tube formation (capillary tube formation): 0.4 ng/mL (≈ 0.817 nM)
caspase-8 activation (caspase-8): activate
cell cycle arrest in late G1 phase [3]: arrests both haploid and diploid cells in late G1 phase
IC50 anti-proliferative activity towards HUVEC ([4]; cell growth assay): 6 ng/mL (≈ 12.3 nM)
anti-proliferative activity weaker than the anti-angiogenesis activity ([4]; measured in the same medium): 15 fold
effectiveness against PC-3 cell lines [5]: effective
haloes of growth inhibition (S. albus J1074/pEM4A): Haloes indicating inhibition of growth were observed
increment of vascular volume induced by WiDr cells (WiDr cells): significantly reduce the increment of vascular volume
caspase-3 activation (caspase-3): activate

borrelidin-amide
selectivity index, capillary formation inhibitory activity versus cell proliferation [6]: 37 fold

C[C@@H]1C[C@H](C)C[C@H](C)[C@@H](O)CC(=O)O[C@H]([C@@H]2CCC[C@H]2C(=O)NCCN2CCOCC2)C/C=C/C=C(/C#N)[C@H](O)[C@@H](C)C1 [borrelidin-morpholinoethyl amide]
selectivity index, capillary formation inhibitory activity versus cell proliferation [6]: 6 fold

CC1CC(C)CC(C)C(O)C(C#N)=CC=CCC(C2CCCC2C(=O)OCCc2ccccn2)OC(=O)CC(O)C(C)C1 (stereo not drawn) [borrelidin-(2-pyridyl)-ethyl ester]
selectivity index, capillary formation inhibitory activity versus cell proliferation [6]: 7.5 fold

CC1CC(C)CC(C)C(O)CC(=O)OC(C2CCCC2C(=O)NCc2cccnc2)C(C#N)=CC=CCC(O)C(C)C1 (stereo not drawn) [borrelidin-(3-picolylamide)]
increase of micrometastases ([1]; rats, intraperitoneal and per os administration at subtoxic doses): inhibit very considerably
metastasis-forming ability of cells transplanted into mouse spleen [7]: considerably decreased

C[C@@H]1C[C@H](C)C[C@H](C)[C@@H](O)CC(=O)O[C@H]([C@@H]2CCC[C@H]2C(=O)OCCN2CCOCC2)C/C=C/C=C(/C#N)[C@H](O)[C@@H](C)C1 [borrelidin-morpholinoethyl ester]
selectivity index, capillary formation inhibitory activity versus cell proliferation [6]: 60 fold
